Assay results from EP4647433A1, “SHP2 INHIBITOR AND USES THEREOF” (Kanaph Therapeutics Inc., priority 2023, dated 2024).

Assays:
H358 cells = assay: Cell viability (3D spheroid, 3D CellTiter-Glo); assay type: cell-based; details: Homo sapiens, NCI-H358, 120 h; H358 spheroids, 5 days treatment
Outline: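 H358 human NSCLC cells (4 x 10^3/well) grown 72 h in RPMI-1640 with 10% FBS to form spheroids, then treated with serially diluted compounds (1.5 nM–10 µM) for 5 days. Viability read by 3D CellTiter-Glo luminescence after 25 min at room temperature; IC50 from concentration–response.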

in vivo = details: mouse, 20 mg/kg
Description: (§1) Nine male CD-1 mice (ICR mouse) aged 6 to 9 weeks were treated with the compounds according to the Examples at a concentration of 20 mg/kg. 0.025 mL of blood and brain tissue were collected at 1 hour, 8 hours, and 24 hours post-treatment, respectively. The collected blood was placed in an EDTA-K2 tube, centrifuged at 4°C at 3,200 x g for 10 minutes, and the supernatant plasma was collected. The brain tissue samples were collected immediately after euthanizing the CD-1 mice after blood collection and performing cardiac perfusion with cold saline. After collection, the brain tissues were washed with cold saline, wiped and dried, weighed, and homogenized using a homogenization buffer (15 mM PBS (pH 7.4): MeOH = 2:1) at a ratio of 1:3 (1 g of tissue to 3 mL of buffer, dilution ratio 4). Plasma and homogenized brain tissue samples were each transferred to a polypropylene microcentrifuge tube and stored at -60°C or lower. The concentration of compounds distributed in plasma and brain tissue was analyzed using LC-MS/MS, and the distribution in brain tissue compared to plasma was calculated as follows. Brain-to-plasma ratio = AUC(0-t) brain tissue /AUC(0-t) plasma [formula]
(§2) In the Brain-plasma Pharmacokinetics assay, when a brain-to-plasma ratio value was 0.05 or more and less than 0.1, + was indicated, when a brain-to-plasma ratio value was 0.1 or more and less than 0.25, ++ was indicated, and when a brain-to-plasma ratio value was more than 0.25, +++ was indicated.

[1] = Brain-plasma Pharmacokinetics; details: mouse, 20 mg/kg
Description: as §1, §2

phospho-ERK = phospho-ERK assay (AlphaLisa) in H358 cells; assay type: cell-based; details: Homo sapiens, NCI-H358, 1.5 hours incubation, read-out: pERK assay (IC50)
Description: H358 [20,000 cell/well] was contained in 40 µL of the cell culture solution (RPMI, 10% FBS, penicillin, streptomycin) and placed on a 384-well plate. After 24 hours, the serially diluted compound according to the Examples (concentration of minimum 0.13 nM, maximum 10 µM) was contained in 10 µL of the cell culture solution, put into wells containing cells, and incubated in a cell incubator for 1.5 hours. As a positive control group, the selective SHP2 inhibitor, TNO155 (Chemietek, US; concentration ranging from 0.13 nM to 10 µM) was used.
Thereafter, phospho-ERK was labeled using an AlphaLisa system from PerkinElmer according to the manufacturer's instructions, and then fluorescence (680 nm excitation wavelength, 615 nm emission wavelength) values were measured using a Varioskan equipment from Thermo. IC50 values were obtained using Graphad's Prism from the measured values depending on the concentration.
Intracellular SHP2 activity can be confirmed by measuring the degree of phosphorylation of ERK (extracellular signal regulated kinase), which represents Ras/Raf/ERK, a downstream signal pathway of SHP2. Inhibition of ERK phosphorylation by SHP2 inhibitors was confirmed through phospho-ERK analysis, which confirmed that the SHP2 inhibitors of the present disclosure have excellent activity in inhibiting ERK phosphorylation mediated by SHP2.

SHP2 = molecular target: T1, SHP2 (Homo sapiens, UniProt Q06124); assay: Phosphatase assay (PTPase assay, DiFMUP substrate); assay type: biochemical; details: full length SHP2 100 pM activated with SHP2 activating peptide, DiFMUP 80 µM, 2 hours; read-out: PTPase assay (IC50)
T1 construct: SHP2 (full length, diluted to 100 pM final concentration in reaction buffer, BPS bioscience, US); purchased BPS bioscience, US
T1 sequence (Q06124 1-593): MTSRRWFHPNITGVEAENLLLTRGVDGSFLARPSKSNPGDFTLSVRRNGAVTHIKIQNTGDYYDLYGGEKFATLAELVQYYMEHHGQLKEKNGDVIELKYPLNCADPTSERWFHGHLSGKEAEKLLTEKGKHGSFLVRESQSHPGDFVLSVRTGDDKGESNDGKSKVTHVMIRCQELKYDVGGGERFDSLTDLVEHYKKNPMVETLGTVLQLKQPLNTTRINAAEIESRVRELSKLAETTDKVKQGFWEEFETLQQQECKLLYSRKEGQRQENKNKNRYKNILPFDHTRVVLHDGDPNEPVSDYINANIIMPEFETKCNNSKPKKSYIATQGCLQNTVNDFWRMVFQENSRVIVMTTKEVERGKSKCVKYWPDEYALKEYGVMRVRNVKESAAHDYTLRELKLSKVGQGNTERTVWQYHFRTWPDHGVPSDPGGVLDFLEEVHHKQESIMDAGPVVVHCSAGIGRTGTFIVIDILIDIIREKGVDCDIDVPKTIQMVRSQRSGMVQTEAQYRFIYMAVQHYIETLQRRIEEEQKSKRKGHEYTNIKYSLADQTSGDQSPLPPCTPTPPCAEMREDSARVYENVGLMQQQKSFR
Outline: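 Full-length SHP2 at 100 pM final was activated with SHP2 activating peptide for 30 min in HEPES buffer pH 7.2 with NaCl, KCl, EDTA, DTT and P-20, then compound (0.6 nM–10 µM) added. DiFMUP (80 µM) was reacted for 2 h in total; fluorescence read at 340/450 nm and IC50 fitted from concentration-response.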

Kp at 24 h (in vivo)	SMILES	IC50 (H358 cells) [µM]	Kp at 24 h ([1]; brain)	IC50 (phospho-ERK) [µM]	IC50 (SHP2) [µM]	Kp at 24 h ([1]; male, CD-1 (ICR), brain/plasma)
> 0.25	COC(C)(C)Cn1cnc2ccc(Sc3cnc(N4CCC5(CC4)Oc4ccccc4[C@H]5N)cn3)c(Cl)c2c1=O [Example 50, (R)-6-((5-(3-amino-3H-spiro[benzofuran-2,4'-piperidin]-1'-yl)pyrazin-2-yl)thio)-5-chloro-3-(2-methoxy-2-methylpropyl)quinazolin-4(3H)-one]	< 0.01	–	–	–	–
–	Cn1cnc2ccc(Sc3cnc(N4CCC5(CC4)Cc4ccccc4[C@H]5N)cn3)c(Cl)c2c1=O [Example 7, (S)-6-((5-(1-amino-1,3-dihydrospiro[indene-2,4'-piperidin]-1'-yl)pyrazin-2-yl)thio)-5-chloro-3-methylquinazolin-4(3H)-one]	< 0.01	0.1 to 0.25	< 0.045	< 0.003	–
–	COC(C)(C)Cn1cnc2ccc(Sc3cnc(N4CCC5(CC4)CO[C@@H](C)[C@H]5N)cn3)c(Cl)c2c1=O [Example 18, 6-((5-((3S,4S)-4-amino-3-methyl-2-oxa-8-azaspiro[4.5]decan-8-yl)pyrazin-2-yl)thio)-5-chloro-3-(2-methoxy-2-methylpropyl)quinazolin-4(3H)-one]	< 0.01	–	< 0.045	< 0.003	> 0.25
–	COC(C)(C)Cn1ccc2ccc(Sc3cnc(N4CCC5(CC4)Cc4ccccc4[C@H]5N)cn3)c(Cl)c2c1=O [Example 43, (S)-7-((5-(1-amino-1,3-dihydrospiro[indene-2,4'-piperidin]-1'-yl)pyrazin-2-yl)thio)-8-chloro-2-(2-methoxy-2-methylpropyl)isoquinolin-1(2H)-one]	< 0.01	–	0.045 to 1.5	< 0.003	> 0.25
